Article PMC4728504, “Determination of FVIIa-sTF Inhibitors in Toxic Microcystis Cyanobacteria by LC-MS Technique” (Marine Drugs, 2015)
“Also recorded” adds a separate entry of the source. Like-named read-outs stand apart in the source and are kept apart here.

What was measured:
fVIIa [1] = target: T1, fVIIa (Homo sapiens, UniProt P08709); assay: fVIIa inhibitory assay (cephalin buffer, without sTF); type: biochemical; conditions: for fVIIa inhibition, slow binding, in words: 10 and 1 µg/mL, L-α-cephalin buffer, without sTF, three to six hours; for fVIIa inhibitory activity, in words: concentration not given
T1 construct: purchased Enzyme Research Laboratories, South Bend, IN, USA HFVIIa
T1 sequence (P08709 213-466): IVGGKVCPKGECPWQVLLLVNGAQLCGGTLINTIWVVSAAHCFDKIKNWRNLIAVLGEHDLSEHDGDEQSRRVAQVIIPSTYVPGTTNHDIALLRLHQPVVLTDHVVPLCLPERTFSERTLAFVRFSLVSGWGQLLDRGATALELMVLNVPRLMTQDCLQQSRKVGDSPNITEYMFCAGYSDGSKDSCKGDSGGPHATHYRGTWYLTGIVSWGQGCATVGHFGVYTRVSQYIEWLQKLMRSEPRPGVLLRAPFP
T1 sequence (P08709 61-212): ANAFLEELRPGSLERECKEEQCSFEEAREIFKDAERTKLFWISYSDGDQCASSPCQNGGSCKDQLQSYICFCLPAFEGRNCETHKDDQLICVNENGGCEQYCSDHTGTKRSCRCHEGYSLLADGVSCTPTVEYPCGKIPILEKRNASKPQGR
Method: (§1) All assay experiments were done in a cold condition at 4 °C using an ice bucket until pre-incubation and reaction at 37 °C.
(§2) The fVIIa and fVIIa-sTF assays used L-α-cephalin buffer solution. The fVIIa-sTF assay was performed following the procedure by Nakagura et al. with modification. The L-α-cephalin as buffer solution was prepared as follows: Buffer (A): Five hundred milliliters (500 mL) of water was added to 6.057 g of Tris (hydroxymethyl)aminomethane (Nacalai Tesque, Kyoto, Japan) to make 100 mM Tris-HCl solution; 4.383 g NaCl (Nacalai Tesque) was added to the resulting solution to make […], and 500 mg bovine serum albumin (BSA) (Sigma, A7284, St. Louis, MO, USA) was added. The pH was adjusted to 7.40; Buffer (B): A 200 mL of Buffer A was added to 0.3329 g of CaCl2 (Nacalai Tesque). The resulting solution (Buffer B) was adjusted to pH 7.48 before it was stored at 4 °C in preparation for the next day experiment. A 30 µg/mL 3-sn-phosphatidylethanolamine from the bovine brain (Sigma, USA) or L-α-cephalin was added to Buffer B on the day of the experiment.
The 80 µL 3-sn-phosphatidylethanolamine buffer, 50 µL of […] fVIIa enzyme in a buffer, and 20 µL of sample solution were dispensed in each well of a 96-well plate (Iwaki: 3881-096, Tokyo, Japan). The 96-well plate with the solution was pre-incubated at 37 °C for 5 min separately together with 1 mM of Chromozyme t-PA (N-Methylsulfonyl-D-Phe-Gly-Arg-4-nitranilide acetate), from Roche Diagnostics (Mannheim, Germany), dissolved in water as a substrate. The 50 µL of the substrate was added, and the mixture was agitated to start the reaction.
(§3) The human factor VIIa (HFVIIa) enzyme, purchased from Enzyme Research Laboratories, South Bend, IN, USA, was added and adjusted with 20 mM Tris-HCl/0.1 M NaCl/pH 7.4. The final enzyme concentration should be 95.06 µg/mL. The 100 µL enzyme solutions were stored in plastic cryogenic vials (Iwaki: 2712-002, Tokyo, Japan) at −80 °C until use. The fVIIa enzyme, 95.06 µg/mL, and 100 µL volume solution was added to 7.822 mL of 3-sn-phosphatidylethanolamine buffer on the assay preparation.

thrombin = thrombin (Homo sapiens, UniProt P00734); assay: Thrombin inhibitory assay; type: biochemical
fVIIa-sTF [2] = assay: fVIIa-sTF inhibitory assay; type: biochemical, human
Method: as §1, §2
The same buffer preparation for fVIIa assay was used for the fVIIa-sTF inhibitory assay. The fVIIa: sTF ratio was 0.30 µg/mL: 0.39 µg/mL, and was prepared in Section 3.3.2.
as §3
The sTF or Recombinant Human Soluble Tissue Factor (F3-28H) or Human F3 was purchased from Creative Biomart, Shirley, NY, USA. The sTF was added with 10 mM PBS, pH 7.4, to make […] (25.624 µg/mL), and transferred in 300 µL volumes in plastic cryogenic vials (Iwaki: 2712-002, Tokyo, Japan), stored at −80 °C until use. The sTF solution (25.624 µg/mL, 300 µL) was added to 4.7 mL of the 3-sn-phosphatidylethanolamine buffer in an amber bottle before use.
The 30 µL buffer, 100 µL fVIIa-sTF, and 20 µL sample solutions were added to a well in a 96-well plate. The solution was pre-incubated at 37 °C for 5 min, together with 1 mM Chromozym t-PA in water as a substrate. A 50-µL substrate was added to start the reaction, agitated, and the absorbance was monitored at 405 nm using Thermo Scientific Multiskan FC microplate photometer.

fVIIa-sTF [3] = conditions: P1 moiety; cited from earlier work
Source text: We have detected aeruginosins 98A (36) and B (37) from M. aeruginosa NIES-98. The MeOH fractions from the aforementioned cyanobacteria are not active in the fVIIa-sTF assay. Thus, from our readings, we compare the fVIIa-sTF inhibitory activity of aeruginosins to phenylamidine. […] The presence of the cyclic amino alcohol moiety in aeruginosins may contribute to efficient binding against fVIIa. However, this hypothesis needs to be established by a structure–ac ...

fVIIa [4] = conditions: cited from earlier work

Compound: aeruginopeptin 228-B [Compound 3]
- fVIIa inhibition, slow binding, in words (fVIIa [1]): active against fVIIa with slow binding and inhibition from three to six hours

Compound: spumigins A [Compound 21]
- fVIIa inhibitory activity, in words (fVIIa [1]): do not inhibit
- thrombin inhibition, in words (thrombin; 100 µg/mL, after a long-term storage): active
- fVIIa-sTF inhibition, in words (fVIIa-sTF [2]; pure compounds or compound class): do not inhibit

Compound: microcystin-RR [Compound 19, reference compound]
- fVIIa-sTF inhibition, in words (fVIIa-sTF [2]): not active

Compound: aeruginosin K139 [Compound 30]
- fVIIa inhibitory activity, in words (fVIIa [1]): dual inhibitory activity
- thrombin inhibitory activity, in words (thrombin; aeruginosins or MeOH fractions, concentration not given): dual inhibitory activity
- active compound attributed by LC-MS in fVIIa-sTF active fraction (fVIIa-sTF [2]; dereplication by LC-MS of active fraction, not tested as pure compound): active component; also recorded: active compound

Compound: microcystin-LR [Compound 18, reference compound]
- fVIIa-sTF inhibition, in words (fVIIa-sTF [2]): not active

Compound: oscillapeptilide 97A [Compound 11]
- fVIIa inhibition, slow binding, in words (fVIIa [1]): active against fVIIa with slow binding and inhibition from three to six hours

Compound: microcystin-YR [Compound 20, reference compound]
- fVIIa-sTF inhibition, in words (fVIIa-sTF [2]): not active

Compound: oscillapeptin G [Compound 10]
- fVIIa inhibition, slow binding, in words (fVIIa [1]): active against fVIIa with slow binding and inhibition from three to six hours

Compound: N=C(N)c1ccccc1 [phenylamidine]
- fVIIa-sTF inhibitory activity, in words (fVIIa-sTF [3]): inhibitory activity against fVIIa-sTF

Compound: oscillarin
- fVIIa inhibition, in words (fVIIa [4]): fVIIa and thrombin inhibitors
